Test results reported in patent US20260262643A1, “HERBICIDAL BENZOXAZINES” (FMC CORPORATION, priority 2022, published 2026).

Legend:
oat, wild [1] = assay: Test A preemergence; format: in vivo, Avena fatua
Procedure, shortened: (§1)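 Weeds and crops in loam–sand blend were sprayed preemergence onto soil or postemergence at 2–10 cm (one- to two-leaf stage). Test chemicals were in a non-phytotoxic solvent with surfactant. After 10 days in the greenhouse, injury was rated visually against untreated controls on a 0 (no effect) to 100 (complete control) scale.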

blackgrass [2] = assay: Test A postemergence; format: in vivo, Alopecurus myosuroides; conditions: postemergence, 10 days
Procedure, shortened: as §1

ducksalad = assay: Test B flooded paddy test; format: in vivo, Heteranthera limosa; conditions: 250 g ai/ha, Flood, 13 days, 0 to 100 scale (0 no effect, 100 complete control)
Procedure, shortened: (§2)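 Two-leaf plants, 3 cm flood, in-water application, 13-day greenhouse hold, visual 0–100 rating vs untreated checks.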

ragweed [3] = assay: Test A postemergence; format: in vivo, Ambrosia artemisiifolia; conditions: postemergence, 10 days
Procedure, shortened: as §1

corn [4] = assay: Test A preemergence; format: in vivo, Zea mays
Procedure, shortened: as §1

soybean [5] = assay: Test A postemergence; format: in vivo, Glycine max; conditions: postemergence, 10 days
Procedure, shortened: as §1

barnyardgrass = assay: Test B flooded paddy test; format: in vivo, Echinochloa crus-galli; conditions: 250 g ai/ha, Flood, 13 days, 0 to 100 scale (0 no effect, 100 complete control)
Procedure, shortened: as §2

ryegrass, Italian [6] = assay: Test A postemergence; format: in vivo, Lolium multiflorum; conditions: postemergence, 10 days
Procedure, shortened: as §1

ragweed [7] = assay: Test A preemergence; format: in vivo, Ambrosia artemisiifolia
Procedure, shortened: as §1

foxtail, giant [8] = assay: Test A postemergence; format: in vivo, Setaria faberi; conditions: postemergence, 10 days
Procedure, shortened: as §1

soybean [9] = assay: Test A preemergence; format: in vivo, Glycine max
Procedure, shortened: as §1

pigweed, palmer [10] = assay: Test A postemergence; format: in vivo, Amaranthus palmeri; conditions: postemergence, 10 days
Procedure, shortened: as §1

kochia [11] = assay: Test A preemergence; format: in vivo, Bassia scoparia
Procedure, shortened: as §1

foxtail, giant [12] = assay: Test A preemergence; format: in vivo, Setaria faberi
Procedure, shortened: as §1

kochia [13] = assay: Test A postemergence; format: in vivo, Bassia scoparia; conditions: postemergence, 10 days
Procedure, shortened: as §1

corn [14] = assay: Test A postemergence; format: in vivo, Zea mays; conditions: postemergence, 10 days
Procedure, shortened: as §1

rice = assay: Test B flooded paddy test; format: in vivo, Oryza sativa; conditions: 250 g ai/ha, Flood, 13 days, 0 to 100 scale (0 no effect, 100 complete control)
Procedure, shortened: as §2

goosegrass [15] = assay: Test A postemergence; format: in vivo, Eleusine indica; conditions: postemergence, 10 days
Procedure, shortened: as §1

horseweed = assay: Test A postemergence; format: in vivo, Erigeron canadensis; conditions: postemergence, 10 days
Procedure, shortened: as §1

wheat [16] = assay: Test A postemergence; format: in vivo, Triticum aestivum; conditions: postemergence, 10 days
Procedure, shortened: as §1

oat, wild [17] = assay: Test A postemergence; format: in vivo, Avena fatua; conditions: postemergence, 10 days
Procedure, shortened: as §1

goosegrass [18] = assay: Test A preemergence; format: in vivo, Eleusine indica
Procedure, shortened: as §1

sedge, umbrella = assay: Test B flooded paddy test; format: in vivo, Cyperus difformis; conditions: 250 g ai/ha, Flood, 13 days, 0 to 100 scale (0 no effect, 100 complete control)
Procedure, shortened: as §2

pigweed, palmer [19] = assay: Test A preemergence; format: in vivo, Amaranthus palmeri
Procedure, shortened: as §1

wheat [20] = assay: Test A preemergence; format: in vivo, Triticum aestivum
Procedure, shortened: as §1

ryegrass, Italian [21] = assay: Test A preemergence; format: in vivo, Lolium multiflorum
Procedure, shortened: as §1

blackgrass [22] = assay: Test A preemergence; format: in vivo, Alopecurus myosuroides
Procedure, shortened: as §1

[23] = 125 g ai/ha, visual injury after 10 days, 0 to 100 scale, 0 is no effect, 100 is complete control
[24] = 500 g ai/ha, 0 to 100 scale (0 no effect, 100 complete control), 10 days
[25] = 125 g ai/ha, 0 to 100 scale, 0 no effect, 100 complete control
[26] = 500 g ai/ha, visual injury, 0 to 100 scale (0 no effect, 100 complete control)

Question: With CCCCc1ncn(-c2cccc(C(=O)N3C[C@H](C)Oc4c(C)cccc43)c2)n1 [Compound 86] as the compound, how does the “Plant response rating, Oat, Wild” value (oat, wild [1]; [23]) read?
Answer: 0

Question: What about the “Plant response rating, Oat, Wild” value (oat, wild [1]; [24]) of the same compound?
Answer: 80

Question: What about the “Blackgrass plant response rating” value (blackgrass [2]; [25]) of the same compound?
Answer: 0

Question: What about the “Plant response rating, Blackgrass” value (blackgrass [2]; [26]) of the same compound?
Answer: 30

Question: What about the “Plant response rating, Ducksalad” value (ducksalad) of the same compound?
Answer: 65

Question: And the “Ragweed plant response rating” value (ragweed [3]; [25])?
Answer: 50

Question: And the “Plant response rating, Ragweed” value (ragweed [3]; [26])?
Answer: 50

Question: What about the “Plant response rating, Corn” value (corn [4]; [23]) of the same compound?
Answer: 0

Question: What about the “Plant response rating, Corn” value (corn [4]; [24]) of the same compound?
Answer: 20

Question: What about the “Soybean plant response rating” value (soybean [5]; [25]) of the same compound?
Answer: 50

Question: And the “Plant response rating, Soybean” value (soybean [5]; [26])?
Answer: 100

Question: What about the “Plant response rating, Barnyardgrass” value (barnyardgrass) of the same compound?
Answer: 0

Question: What about the “Ryegrass, Italian plant response rating” value (ryegrass, Italian [6]; [25]) of the same compound?
Answer: 10

Question: What about the “Plant response rating, Ryegrass, Italian” value (ryegrass, Italian [6]; [26]) of the same compound?
Answer: 50

Question: What about the “Plant response rating, Ragweed” value (ragweed [7]; [23]) of the same compound?
Answer: 0

Question: And the “Plant response rating, Ragweed” value (ragweed [7]; [24])?
Answer: 0

Question: And the “Foxtail, Giant plant response rating” value (foxtail, giant [8]; [25])?
Answer: 10

Question: And the “Plant response rating, Foxtail, Giant” value (foxtail, giant [8]; [26])?
Answer: 20

Question: And the “Plant response rating, Soybean” value (soybean [9]; [23])?
Answer: 0

Question: What about the “Plant response rating, Soybean” value (soybean [9]; [24]) of the same compound?
Answer: 0

Question: What about the “Pigweed, Palmer plant response rating” value (pigweed, palmer [10]; [25]) of the same compound?
Answer: 20

Question: And the “Plant response rating, Pigweed, Palmer” value (pigweed, palmer [10]; [26])?
Answer: 40

Question: What about the “Plant response rating, Kochia” value (kochia [11]; [23]) of the same compound?
Answer: 60

Question: What about the “Plant response rating, Kochia” value (kochia [11]; [24]) of the same compound?
Answer: 70

Question: And the “Plant response rating, Foxtail, Giant” value (foxtail, giant [12]; [23])?
Answer: 0

Question: And the “Plant response rating, Foxtail, Giant” value (foxtail, giant [12]; [24])?
Answer: 70

Question: And the “Kochia plant response rating” value (kochia [13]; [25])?
Answer: 50

Question: What about the “Plant response rating, Kochia” value (kochia [13]; [26]) of the same compound?
Answer: 90

Question: And the “Corn plant response rating” value (corn [14]; [25])?
Answer: 0

Question: What about the “Plant response rating, Corn” value (corn [14]; [26]) of the same compound?
Answer: 10

Question: What about the “Plant response rating, Rice” value (rice) of the same compound?
Answer: 0

Question: And the “Goosegrass plant response rating” value (goosegrass [15]; [25])?
Answer: 10

Question: And the “Plant response rating, Goosegrass” value (goosegrass [15]; [26])?
Answer: 50

Question: And the “Horseweed plant response rating” value (horseweed; [25])?
Answer: 0

Question: And the “Plant response rating, Horseweed” value (horseweed; [26])?
Answer: 0

Question: And the “Wheat plant response rating” value (wheat [16]; [25])?
Answer: 10

Question: What about the “Plant response rating, Wheat” value (wheat [16]; [26]) of the same compound?
Answer: 20

Question: What about the “Oat, Wild plant response rating” value (oat, wild [17]; [25]) of the same compound?
Answer: 0

Question: And the “Plant response rating, Oat, Wild” value (oat, wild [17]; [26])?
Answer: 10

Question: What about the “Plant response rating, Goosegrass” value (goosegrass [18]; [23]) of the same compound?
Answer: 60

Question: And the “Plant response rating, Goosegrass” value (goosegrass [18]; [24])?
Answer: 90

Question: And the “Plant response rating, Sedge, Umbrella” value (sedge, umbrella)?
Answer: 90

Question: And the “Plant response rating, Pigweed, Palmer” value (pigweed, palmer [19]; [23])?
Answer: 20

Question: What about the “Plant response rating, Pigweed, Palmer” value (pigweed, palmer [19]; [24]) of the same compound?
Answer: 90

Question: What about the “Plant response rating, Wheat” value (wheat [20]; [23]) of the same compound?
Answer: 0

Question: And the “Plant response rating, Wheat” value (wheat [20]; [24])?
Answer: 10

Question: And the “Plant response rating, Ryegrass, Italian” value (ryegrass, Italian [21]; [23])?
Answer: 70

Question: What about the “Plant response rating, Ryegrass, Italian” value (ryegrass, Italian [21]; [24]) of the same compound?
Answer: 100

Question: And the “Plant response rating, Blackgrass” value (blackgrass [22]; [23])?
Answer: 0

Question: What about the “Plant response rating, Blackgrass” value (blackgrass [22]; [24]) of the same compound?
Answer: 30
